# Measurements as given in patent US8075902B2, “Diagnosis and treatment of cancer related to human dormancy” (priority 2007, dated 2011).
# Tests used:
# [1] = cited from earlier work
# [2] = tested on: AU565 human breast cancer cells; experiment: Combination study (MTT), AU565 breast cancer cells, Example 6; assay type: cell-based; conditions: 6 days, #3 at 2%, #5 at 4%, #6 at 12.5%, FIG. 4
# Source text: To determine if a combination of antimicrobial agents plus anti-hibernation agents would act synergistically to inhibit cancer, we carried out another study with the human breast cancer cell line AU565 in vitro. We used solution #3 as described above, which included isoniazid (INH), rifampin, ethambutol, minocycline, metronidazole, acyclovir and telithromycin at a 2% concentration of the previous mixture used in Example 5. This was to decrease the cell growth inhibition to ease interpretation of the results. We combined #3 with #6 (curcumin) and #3 with #5 (luteolin) to investigate the synergistic potential of these combinations using the following procedure. […] AU565 human breast cancer cells were routinely maintained in RPMI-1640 medium supplemented with 10% fetal bovine serum, 2 mM sodium pyruvate, and 4.2 g/L glucose. The cells were cultured at 37° C. in an atmosphere of 95% air/5% CO2 and 100% humidity. When cells reached 80% confluence, they were harvested using 0.25% trypsin/EDTA solution. The harvested cells were re-suspended in appropriate medium and reseeded in 96-well plate at a density of 3,000 cells/well/200 μl. Cells were allowed to attach for 24 h, then various concentrations of the test compositions were added to each appropriate well. […] At the end of 6 days, viable cells were measured by MTT assay as described above in Example 2. […]
Structure (SMILES),half life [1] [min],percent inhibition of tumor cell growth [2] [%]
O=C1O[C@H]([C@@H](O)CO)C(O)=C1O [Ascorbic acid],30,–
"O=c1cc(-c2ccc(O)c(O)c2)oc2cc(O)cc(O)c12 [Sample #5, Luteolin]",–,10
"COc1cc(/C=C/C(=O)CC(=O)/C=C/c2ccc(O)c(OC)c2)ccc1O [Sample #6, Curcumin]",–,9
